Organism: Rattus norvegicus
Assay: DrugMatrix - Regimen: Daily Repeat
Type: toxicity, organism-based, Sprague-Dawley
Design: regimen Daily Repeat, gender Male, age 6-8 weeks
Conditions: in vivo, po, route oral GAVAGE, […]; for ABSOLUTE BASOPHIL / ABSOLUTE EOSINOPHIL / ABSOLUTE LYMPHOCYTE / ABSOLUTE MONOCYTE / ABSOLUTE SEGMENTED NEUTROPHIL / BASOPHIL / EOSINOPHIL / ERYTHROCYTE COUNT / HEMATOCRIT / HEMOGLOBIN / LEUKOCYTE COUNT / LYMPHOCYTE / MEAN CORPUSCULAR HEMOGLOBIN / MEAN CORPUSCULAR HEMOGLOBIN CONCENTRATION / MEAN CORPUSCULAR VOLUME / MONOCYTE / NEUTROPHIL / NUCLEATED RED BLOOD CELLS / PLATELET COUNT: tissue Blood; for ALANINE AMINOTRANSFERASE / ALBUMIN / ALKALINE PHOSPHATASE / ASPARTATE AMINOTRANSFERASE / BLOOD UREA NITROGEN / CARBON DIOXIDE / CHLORIDE / CHOLESTEROL / CREATINE PHOSPHOKINASE / CREATININE / GLUCOSE / LACTATE DEHYDROGENASE / LIPASE / PHOSPHORUS / POTASSIUM / SODIUM / TOTAL BILIRUBIN / TOTAL PROTEIN / URIC ACID: tissue Plasma
[1] = 30 mg/kg, 120 h, dose level Low, time 5 day
[2] = 60 mg/kg, 72 h, dose level High, time 3 day
[3] = 60 mg/kg, 120 h, dose level High, time 5 day

SMILES: Cc1oncc1C(=O)Nc1ccc(C(F)(F)F)cc1 [LEFLUNOMIDE]
- ABSOLUTE BASOPHIL [1]: 0 CELLS/uL
- ABSOLUTE EOSINOPHIL [1]: 25.33 CELLS/uL
- ABSOLUTE LYMPHOCYTE [1]: 6685.33 CELLS/uL
- ABSOLUTE MONOCYTE [1]: 149.33 CELLS/uL
- ABSOLUTE SEGMENTED NEUTROPHIL [1]: 606.67 CELLS/uL
- BASOPHIL [1]: 0%
- EOSINOPHIL [1]: 0.33%
- ERYTHROCYTE COUNT [1]: 4.69 x10E6/uL
- HEMATOCRIT [1]: 30.27%
- HEMOGLOBIN [1]: 11.73 G/DL
- LEUKOCYTE COUNT [1]: 7.47 x10E3/uL
- LYMPHOCYTE [1]: 89.33%
- MEAN CORPUSCULAR HEMOGLOBIN [1]: 25.03 pg
- MEAN CORPUSCULAR HEMOGLOBIN CONCENTRATION [1]: 38.77 G/DL
- MEAN CORPUSCULAR VOLUME [1]: 64.57 fL
- MONOCYTE [1]: 2%
- NEUTROPHIL [1]: 8.33%
- NUCLEATED RED BLOOD CELLS [1]: 0 /100WBC
- PLATELET COUNT [1]: 507.67 x10E3/uL
- ALANINE AMINOTRANSFERASE [1]: 47.33 u/L
- ALBUMIN [1]: 3.93 G/DL
- ALKALINE PHOSPHATASE [1]: 195.67 u/L
- ASPARTATE AMINOTRANSFERASE [1]: 69.33 u/L
- BLOOD UREA NITROGEN [1]: 12.67 mg/dL
- CARBON DIOXIDE [1]: 34 mmol/L
- CHLORIDE [1]: 103 MEQ/L
- CHOLESTEROL [1]: 104.33 mg/dL
- CREATINE PHOSPHOKINASE [1]: 179 u/L
- CREATININE [1]: 0.11 mg/dL
- GLUCOSE [1]: 152.67 mg/dL
- LACTATE DEHYDROGENASE [1]: 60 u/L
- LIPASE [1]: 11.67 u/L
- PHOSPHORUS [1]: 12.6 mg/dL
- POTASSIUM [1]: 5.71 MEQ/L
- SODIUM [1]: 146.27 MEQ/L
- TOTAL BILIRUBIN [1]: 0.1 mg/dL
- TOTAL PROTEIN [1]: 5.9 G/DL
- URIC ACID [1]: 0.27 mg/dL
- ABSOLUTE BASOPHIL [2]: 0 CELLS/uL
- ABSOLUTE EOSINOPHIL [2]: 0 CELLS/uL
- ABSOLUTE LYMPHOCYTE [2]: 5003.33 CELLS/uL
- ABSOLUTE MONOCYTE [2]: 42.67 CELLS/uL
- ABSOLUTE SEGMENTED NEUTROPHIL [2]: 720.67 CELLS/uL
- BASOPHIL [2]: 0%
- EOSINOPHIL [2]: 0%
- ERYTHROCYTE COUNT [2]: 5.59 x10E6/uL
- HEMATOCRIT [2]: 34.57%
- HEMOGLOBIN [2]: 13.67 G/DL
- LEUKOCYTE COUNT [2]: 5.77 x10E3/uL
- LYMPHOCYTE [2]: 89%
- MEAN CORPUSCULAR HEMOGLOBIN [2]: 24.5 pg
- MEAN CORPUSCULAR HEMOGLOBIN CONCENTRATION [2]: 39.53 G/DL
- MEAN CORPUSCULAR VOLUME [2]: 61.87 fL
- MONOCYTE [2]: 0.67%
- NEUTROPHIL [2]: 10.33%
- NUCLEATED RED BLOOD CELLS [2]: 0 /100WBC
- PLATELET COUNT [2]: 824 x10E3/uL
- ALANINE AMINOTRANSFERASE [2]: 39.67 u/L
- ALBUMIN [2]: 3.1 G/DL
- ALKALINE PHOSPHATASE [2]: 225.67 u/L
- ASPARTATE AMINOTRANSFERASE [2]: 100.33 u/L
- BLOOD UREA NITROGEN [2]: 14 mg/dL
- CARBON DIOXIDE [2]: 30 mmol/L
- CHLORIDE [2]: 98.67 MEQ/L
- CHOLESTEROL [2]: 115.33 mg/dL
- CREATINE PHOSPHOKINASE [2]: 296.67 u/L
- CREATININE [2]: 0.11 mg/dL
- GLUCOSE [2]: 170 mg/dL
- LACTATE DEHYDROGENASE [2]: 93.67 u/L
- LIPASE [2]: 11.33 u/L
- PHOSPHORUS [2]: 10.73 mg/dL
- POTASSIUM [2]: 4.3 MEQ/L
- SODIUM [2]: 142.97 MEQ/L
- TOTAL BILIRUBIN [2]: 0.17 mg/dL
- TOTAL PROTEIN [2]: 4.97 G/DL
- URIC ACID [2]: 0.43 mg/dL
- ABSOLUTE BASOPHIL [3]: 0 CELLS/uL
- ABSOLUTE EOSINOPHIL [3]: 23 CELLS/uL
- ABSOLUTE LYMPHOCYTE [3]: 3653 CELLS/uL
- ABSOLUTE MONOCYTE [3]: 48 CELLS/uL
- ABSOLUTE SEGMENTED NEUTROPHIL [3]: 376 CELLS/uL
- BASOPHIL [3]: 0%
- EOSINOPHIL [3]: 0.67%
- ERYTHROCYTE COUNT [3]: 6.19 x10E6/uL
- HEMATOCRIT [3]: 39%
- HEMOGLOBIN [3]: 15.23 G/DL
- LEUKOCYTE COUNT [3]: 4.1 x10E3/uL
- LYMPHOCYTE [3]: 89.33%
- MEAN CORPUSCULAR HEMOGLOBIN [3]: 24.77 pg
- MEAN CORPUSCULAR HEMOGLOBIN CONCENTRATION [3]: 39.07 G/DL
- MEAN CORPUSCULAR VOLUME [3]: 63.4 fL
- MONOCYTE [3]: 1.33%
- NEUTROPHIL [3]: 8.67%
- NUCLEATED RED BLOOD CELLS [3]: 0 /100WBC
- PLATELET COUNT [3]: 441.33 x10E3/uL
- ALANINE AMINOTRANSFERASE [3]: 25.67 u/L
- ALBUMIN [3]: 3.73 G/DL
- ALKALINE PHOSPHATASE [3]: 203 u/L
- ASPARTATE AMINOTRANSFERASE [3]: 75.67 u/L
- BLOOD UREA NITROGEN [3]: 64.67 mg/dL
- CARBON DIOXIDE [3]: 24.33 mmol/L
- CHLORIDE [3]: 98.5 MEQ/L
- CHOLESTEROL [3]: 138.67 mg/dL
- CREATINE PHOSPHOKINASE [3]: 227.67 u/L
- CREATININE [3]: 0.33 mg/dL
- GLUCOSE [3]: 145.67 mg/dL
- LACTATE DEHYDROGENASE [3]: 137 u/L
- LIPASE [3]: 22.67 u/L
- PHOSPHORUS [3]: 11.8 mg/dL
- POTASSIUM [3]: 5.41 MEQ/L
- SODIUM [3]: 137.7 MEQ/L
- TOTAL BILIRUBIN [3]: 0.27 mg/dL
- TOTAL PROTEIN [3]: 6.53 G/DL
- URIC ACID [3]: 0.93 mg/dL

Reference: ChEMBL document CHEMBL3885881, “DrugMatrix”
